Laboratory results: US10457691B2, “Macrocyclic kinase inhibitors and uses thereof” (Dana-Farber Cancer Institute, Inc., priority 2014, dated 2019)

Tests used:
Format in all cases: biochemical
Conditions in all cases: read-out: Activity of the protein kinase when treated with compound I-1 (% control)
EF2K = EF2K (Homo sapiens, UniProt O00418); assay: Protein kinase assay ([γ-32P] ATP), EF2K
Protocol: (§1) In another set of experiments, the activities of the compounds described herein against various protein kinases were determined according to the methods reported in Hastie et al., Nature Protocols, 2006, 1, 968-971.
(§2) Enzyme dilution buffer. This buffer consisted of 50 mM Tris-HCl, pH 7.5, 0.1 mM EGTA, 1 mg ml^−1 bovine serum albumin and 0.1% (vol/vol) 2-mercaptoethanol.
(§3) 10× concentrated assay buffer. An assay buffer of 500 mM Tris-HCl, pH 7.5, 1 mM EGTA, and 100 mM magnesium acetate was used for assay of a wide variety of protein kinases. In some experiments, other cofactors were included (e.g., calcium ions and calmodulin were included for assay of calcium-calmodulindependent protein kinases).
(§4) 1 mM [γ-^32P] ATP. The specific activity of the [γ-^32P] ATP solution was 1×10^5 to 1×10^6 c.p.m. per nmol depending on what was needed to produce an optimal signal/noise ratio. […] To measure the concentration of ATP, a sample of such a stock solution was diluted to 20 μM, and the absorbance of the diluted sample was measured at 259 nm. The absorbance of a 20-μM stock solution of ATP at 259 nm was about 0.31. […] ATP to produce a radioactivity of 1×10^5 to 1×10^6 c.p.m. per nmol. […]
(§5) 13) Measure radioactivity in the samples by Cerenkov counting (e.g., without liquid scintillation fluid) in a liquid scintillation counter using a “^32P program”. […]

TTK = TTK (Homo sapiens, UniProt P33981); assay: Protein kinase assay ([γ-32P] ATP), TTK
Protocol: as §1, §2, §3, §4, §5

Aurora B = Aurora B (Homo sapiens, UniProt Q96GD4); assay: Protein kinase assay ([γ-32P] ATP), Aurora B
Protocol: as §1, §2, §3, §4, §5

MNK1 = MNK1 (Homo sapiens, UniProt Q9BUB5); assay: Protein kinase assay ([γ-32P] ATP), MNK1
Protocol: as §1, §2, §3, §4, §5

CAMKKb = CAMKKb (Homo sapiens, UniProt Q96RR4); assay: Protein kinase assay ([γ-32P] ATP), CAMKKb
Protocol: as §1, §2, §3, §4, §5

MARK1 = MARK1 (Homo sapiens, UniProt Q9P0L2); assay: Protein kinase assay ([γ-32P] ATP), MARK1
Protocol: as §1, §2, §3, §4, §5

EIF2AK3 = EIF2AK3 (Homo sapiens, UniProt Q9NZJ5); assay: Protein kinase assay ([γ-32P] ATP), EIF2AK3
Protocol: as §1, §2, §3, §4, §5

MEKK1 = MEKK1 (Homo sapiens, UniProt Q13233); assay: Protein kinase assay ([γ-32P] ATP), MEKK1
Protocol: as §1, §2, §3, §4, §5

FGF-R1 = FGF-R1 (Homo sapiens, UniProt P11362); assay: Protein kinase assay ([γ-32P] ATP), FGF-R1
Protocol: as §1, §2, §3, §4, §5

NUAK1 = NUAK1 (Homo sapiens, UniProt O60285); assay: Protein kinase assay ([γ-32P] ATP), NUAK1
Protocol: as §1, §2, §3, §4, §5

IRAK1 = IRAK1 (Homo sapiens, UniProt P51617); assay: Protein kinase assay ([γ-32P] ATP), IRAK1
Protocol: as §1, §2, §3, §4, §5

JNK1 = JNK1 (Homo sapiens, UniProt P45983); assay: Protein kinase assay ([γ-32P] ATP), JNK1
Protocol: as §1, §2, §3, §4, §5

GCK = GCK (Homo sapiens, UniProt Q12851); assay: Protein kinase assay ([γ-32P] ATP), GCK
Protocol: as §1, §2, §3, §4, §5

CK1γ2 = CK1γ2 (Homo sapiens, UniProt P78368); assay: Protein kinase assay ([γ-32P] ATP), CK1γ2
Protocol: as §1, §2, §3, §4, §5

EPH-B1 = EPH-B1 (Homo sapiens, UniProt P54762); assay: Protein kinase assay ([γ-32P] ATP), EPH-B1
Protocol: as §1, §2, §3, §4, §5

p38a MAPK = p38a MAPK (Homo sapiens, UniProt Q16539); assay: Protein kinase assay ([γ-32P] ATP), p38a MAPK
Protocol: as §1, §2, §3, §4, §5

YES1 = YES1 (Homo sapiens, UniProt P07947); assay: Protein kinase assay ([γ-32P] ATP), YES1
Protocol: as §1, §2, §3, §4, §5

[1] = 0.1 μM of compound I-1, DMSO control = 100%
[2] = 1 μM of compound I-1, DMSO control = 100%

YES1, sequence (P07947 whole entry): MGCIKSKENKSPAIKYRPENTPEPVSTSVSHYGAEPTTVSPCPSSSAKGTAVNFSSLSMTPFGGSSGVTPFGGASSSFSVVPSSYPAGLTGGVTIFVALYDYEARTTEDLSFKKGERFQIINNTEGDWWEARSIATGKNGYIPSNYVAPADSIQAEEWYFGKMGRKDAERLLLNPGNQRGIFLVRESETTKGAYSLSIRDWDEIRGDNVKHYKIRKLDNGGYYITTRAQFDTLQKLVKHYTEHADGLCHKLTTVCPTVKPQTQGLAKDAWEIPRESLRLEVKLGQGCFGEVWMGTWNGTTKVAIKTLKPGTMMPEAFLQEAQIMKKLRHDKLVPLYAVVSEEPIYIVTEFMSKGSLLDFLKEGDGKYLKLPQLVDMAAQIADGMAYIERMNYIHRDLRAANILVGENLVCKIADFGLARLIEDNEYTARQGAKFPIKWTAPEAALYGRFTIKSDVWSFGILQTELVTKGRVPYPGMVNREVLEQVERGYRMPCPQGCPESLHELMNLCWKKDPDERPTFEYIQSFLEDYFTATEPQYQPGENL
CK1γ2, sequence (P78368 whole entry): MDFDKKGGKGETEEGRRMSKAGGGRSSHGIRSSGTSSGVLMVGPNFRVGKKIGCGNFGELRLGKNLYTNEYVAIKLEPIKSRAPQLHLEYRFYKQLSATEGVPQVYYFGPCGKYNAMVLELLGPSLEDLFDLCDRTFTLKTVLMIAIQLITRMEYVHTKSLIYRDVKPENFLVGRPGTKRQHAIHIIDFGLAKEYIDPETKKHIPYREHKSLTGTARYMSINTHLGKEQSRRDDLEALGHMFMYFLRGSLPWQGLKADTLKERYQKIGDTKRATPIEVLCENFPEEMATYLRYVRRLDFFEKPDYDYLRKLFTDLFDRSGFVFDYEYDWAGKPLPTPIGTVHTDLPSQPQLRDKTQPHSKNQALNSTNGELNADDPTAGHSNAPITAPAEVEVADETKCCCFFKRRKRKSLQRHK
MARK1, sequence (Q9P0L2 whole entry): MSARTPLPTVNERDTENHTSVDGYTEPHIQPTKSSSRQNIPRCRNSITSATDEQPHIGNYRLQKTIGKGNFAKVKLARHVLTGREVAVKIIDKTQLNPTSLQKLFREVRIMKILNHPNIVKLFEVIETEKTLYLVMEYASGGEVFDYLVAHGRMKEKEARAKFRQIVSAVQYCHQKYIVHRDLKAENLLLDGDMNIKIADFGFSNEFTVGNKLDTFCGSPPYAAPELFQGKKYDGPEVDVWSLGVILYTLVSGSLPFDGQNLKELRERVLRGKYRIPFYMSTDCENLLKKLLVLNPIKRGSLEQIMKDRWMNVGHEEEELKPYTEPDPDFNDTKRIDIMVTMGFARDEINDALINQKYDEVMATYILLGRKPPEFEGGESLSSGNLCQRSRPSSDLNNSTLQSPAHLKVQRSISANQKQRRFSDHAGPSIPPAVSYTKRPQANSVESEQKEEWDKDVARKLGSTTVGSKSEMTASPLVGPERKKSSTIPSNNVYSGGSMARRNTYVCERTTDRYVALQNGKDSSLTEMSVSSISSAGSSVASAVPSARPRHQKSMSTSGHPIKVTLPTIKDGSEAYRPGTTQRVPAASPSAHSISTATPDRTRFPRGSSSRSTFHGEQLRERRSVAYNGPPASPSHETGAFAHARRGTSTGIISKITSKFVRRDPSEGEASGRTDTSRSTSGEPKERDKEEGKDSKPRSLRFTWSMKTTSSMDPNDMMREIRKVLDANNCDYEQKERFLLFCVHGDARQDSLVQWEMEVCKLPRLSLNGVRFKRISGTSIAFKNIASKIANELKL
EPH-B1, sequence (P54762 18-984): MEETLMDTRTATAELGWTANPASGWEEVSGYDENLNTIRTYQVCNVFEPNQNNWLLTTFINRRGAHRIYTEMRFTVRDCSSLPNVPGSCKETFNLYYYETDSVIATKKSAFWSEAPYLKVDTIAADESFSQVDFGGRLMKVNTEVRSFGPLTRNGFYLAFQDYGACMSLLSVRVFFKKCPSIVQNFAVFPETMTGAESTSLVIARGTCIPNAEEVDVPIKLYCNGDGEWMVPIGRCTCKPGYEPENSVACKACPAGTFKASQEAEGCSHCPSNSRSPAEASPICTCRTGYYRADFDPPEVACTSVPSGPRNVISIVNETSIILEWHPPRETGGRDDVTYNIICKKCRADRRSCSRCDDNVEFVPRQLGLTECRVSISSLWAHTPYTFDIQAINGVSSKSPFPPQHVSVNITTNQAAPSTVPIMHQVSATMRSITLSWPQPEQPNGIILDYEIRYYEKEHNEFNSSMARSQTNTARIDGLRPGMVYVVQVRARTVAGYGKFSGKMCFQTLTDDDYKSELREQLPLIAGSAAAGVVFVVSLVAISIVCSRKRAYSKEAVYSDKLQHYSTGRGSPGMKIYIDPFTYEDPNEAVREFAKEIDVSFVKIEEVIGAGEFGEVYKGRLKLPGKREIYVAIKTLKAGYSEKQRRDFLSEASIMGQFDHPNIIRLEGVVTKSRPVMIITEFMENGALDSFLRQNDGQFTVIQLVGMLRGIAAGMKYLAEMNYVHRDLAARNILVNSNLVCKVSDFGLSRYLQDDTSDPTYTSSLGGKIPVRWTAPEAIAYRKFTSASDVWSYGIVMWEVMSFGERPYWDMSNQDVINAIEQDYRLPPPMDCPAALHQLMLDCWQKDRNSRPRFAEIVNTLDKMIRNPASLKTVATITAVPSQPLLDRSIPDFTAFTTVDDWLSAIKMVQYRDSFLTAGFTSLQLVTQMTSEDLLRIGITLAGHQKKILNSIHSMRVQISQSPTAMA
p38a MAPK, sequence (Q16539 whole entry): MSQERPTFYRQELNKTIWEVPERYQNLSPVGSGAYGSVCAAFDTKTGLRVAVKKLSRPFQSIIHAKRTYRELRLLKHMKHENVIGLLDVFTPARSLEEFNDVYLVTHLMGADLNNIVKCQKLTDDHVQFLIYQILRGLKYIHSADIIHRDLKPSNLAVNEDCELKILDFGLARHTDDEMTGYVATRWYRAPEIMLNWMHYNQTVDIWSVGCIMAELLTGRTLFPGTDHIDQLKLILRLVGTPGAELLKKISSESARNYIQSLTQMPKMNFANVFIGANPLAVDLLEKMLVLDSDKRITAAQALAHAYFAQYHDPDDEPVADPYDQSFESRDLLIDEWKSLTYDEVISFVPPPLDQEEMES
MEKK1, sequence (Q13233 whole entry): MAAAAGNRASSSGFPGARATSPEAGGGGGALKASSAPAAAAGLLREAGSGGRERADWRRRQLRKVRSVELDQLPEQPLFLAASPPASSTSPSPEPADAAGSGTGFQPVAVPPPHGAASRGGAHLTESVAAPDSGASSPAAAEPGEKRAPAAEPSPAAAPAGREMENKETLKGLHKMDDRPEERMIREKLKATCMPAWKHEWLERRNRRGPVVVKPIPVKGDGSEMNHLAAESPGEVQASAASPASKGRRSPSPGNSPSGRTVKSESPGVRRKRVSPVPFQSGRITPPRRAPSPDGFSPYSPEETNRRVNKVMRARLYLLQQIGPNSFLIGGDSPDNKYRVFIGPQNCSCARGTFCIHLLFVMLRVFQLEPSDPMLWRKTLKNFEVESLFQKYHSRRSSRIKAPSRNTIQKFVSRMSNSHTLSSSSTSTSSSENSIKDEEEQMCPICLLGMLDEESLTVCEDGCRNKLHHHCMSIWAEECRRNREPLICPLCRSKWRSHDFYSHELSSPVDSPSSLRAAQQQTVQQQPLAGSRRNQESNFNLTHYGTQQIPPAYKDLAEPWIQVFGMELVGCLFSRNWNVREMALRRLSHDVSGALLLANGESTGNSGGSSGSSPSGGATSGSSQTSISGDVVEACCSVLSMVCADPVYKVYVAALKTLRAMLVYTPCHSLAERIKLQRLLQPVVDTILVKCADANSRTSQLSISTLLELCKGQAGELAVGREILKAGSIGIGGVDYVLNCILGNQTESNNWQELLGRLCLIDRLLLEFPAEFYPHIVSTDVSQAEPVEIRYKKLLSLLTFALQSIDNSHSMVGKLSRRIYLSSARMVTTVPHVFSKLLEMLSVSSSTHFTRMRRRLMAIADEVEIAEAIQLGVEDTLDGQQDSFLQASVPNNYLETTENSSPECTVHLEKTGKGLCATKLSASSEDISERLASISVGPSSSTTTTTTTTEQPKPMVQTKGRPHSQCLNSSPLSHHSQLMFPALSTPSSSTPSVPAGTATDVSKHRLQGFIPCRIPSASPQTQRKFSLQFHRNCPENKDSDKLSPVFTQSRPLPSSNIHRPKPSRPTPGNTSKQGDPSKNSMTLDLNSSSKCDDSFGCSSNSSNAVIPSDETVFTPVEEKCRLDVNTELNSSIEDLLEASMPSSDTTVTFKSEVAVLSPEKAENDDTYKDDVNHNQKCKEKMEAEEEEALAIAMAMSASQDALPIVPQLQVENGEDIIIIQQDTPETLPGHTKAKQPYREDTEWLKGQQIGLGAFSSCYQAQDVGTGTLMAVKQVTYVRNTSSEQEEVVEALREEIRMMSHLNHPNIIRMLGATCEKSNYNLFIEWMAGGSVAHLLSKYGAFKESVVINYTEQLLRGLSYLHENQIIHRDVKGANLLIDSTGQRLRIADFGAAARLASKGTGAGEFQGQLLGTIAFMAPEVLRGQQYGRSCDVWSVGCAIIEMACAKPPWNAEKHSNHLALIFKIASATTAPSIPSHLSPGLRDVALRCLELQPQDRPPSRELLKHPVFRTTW
MNK1, sequence (Q9BUB5 whole entry): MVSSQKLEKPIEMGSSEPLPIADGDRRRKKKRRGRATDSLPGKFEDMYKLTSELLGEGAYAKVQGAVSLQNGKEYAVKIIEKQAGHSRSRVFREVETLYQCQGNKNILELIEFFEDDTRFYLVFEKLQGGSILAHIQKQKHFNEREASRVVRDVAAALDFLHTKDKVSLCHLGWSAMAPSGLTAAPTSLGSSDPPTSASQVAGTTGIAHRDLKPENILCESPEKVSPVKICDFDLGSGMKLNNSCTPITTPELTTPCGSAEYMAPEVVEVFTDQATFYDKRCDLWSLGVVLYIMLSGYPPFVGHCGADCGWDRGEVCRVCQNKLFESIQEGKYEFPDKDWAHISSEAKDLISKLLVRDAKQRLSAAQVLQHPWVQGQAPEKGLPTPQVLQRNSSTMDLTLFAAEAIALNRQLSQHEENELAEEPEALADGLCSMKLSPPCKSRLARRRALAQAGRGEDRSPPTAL

Cc1cccc(C)c1NC(=O)N1C/C=C\COc2cccc(c2)Nc2cc1ncn2 [Compound I-1]
remaining activity at 0.1 µM (EF2K; [1]): 103% | remaining activity at 1 µM (EF2K; [2]): 83% | remaining activity at 0.1 µM (TTK; [1]): 99% | remaining activity at 1 µM (TTK; [2]): 79% | remaining activity at 0.1 µM (Aurora B; [1]): 89% | remaining activity at 1 µM (Aurora B; [2]): 78% | remaining activity at 0.1 µM (MNK1; [1]): 105% | remaining activity at 1 µM (MNK1; [2]): 90% | remaining activity at 0.1 µM (CAMKKb; [1]): 101% | remaining activity at 1 µM (CAMKKb; [2]): 88% | remaining activity at 0.1 µM (MARK1; [1]): 62% | remaining activity at 1 µM (MARK1; [2]): 68% | remaining activity at 0.1 µM (EIF2AK3; [1]): 97% | remaining activity at 1 µM (EIF2AK3; [2]): 80% | remaining activity at 0.1 µM (MEKK1; [1]): 96% | remaining activity at 1 µM (MEKK1; [2]): 95% | remaining activity at 0.1 µM (FGF-R1; [1]): 41% | remaining activity at 1 µM (FGF-R1; [2]): 12% | remaining activity at 0.1 µM (NUAK1; [1]): 100% | remaining activity at 1 µM (NUAK1; [2]): 93% | remaining activity at 0.1 µM (IRAK1; [1]): 105% | remaining activity at 1 µM (IRAK1; [2]): 83% | remaining activity at 0.1 µM (JNK1; [1]): 93% | remaining activity at 1 µM (JNK1; [2]): 72% | remaining activity at 0.1 µM (GCK; [1]): 71% | remaining activity at 1 µM (GCK; [2]): 16% | remaining activity at 0.1 µM (CK1γ2; [1]): 96% | remaining activity at 1 µM (CK1γ2; [2]): 100% | remaining activity at 0.1 µM (EPH-B1; [1]): 40% | remaining activity at 1 µM (EPH-B1; [2]): 43% | remaining activity at 0.1 µM (p38a MAPK; [1]): 79% | remaining activity at 1 µM (p38a MAPK; [2]): 14% | remaining activity at 0.1 µM (YES1; [1]): 10% | remaining activity at 1 µM (YES1; [2]): 15%
